Numbering of substitutions follows the chain as printed.

One assay addresses T1, 6XHIS-ARV1-N98 D72A (Homo sapiens, UniProt Q9H2C2, D72A).
T1 construct: Expressing amino-terminal 98 amino acids of ARV1; made in house; host or cells: E. coli BL21 (pET-28a(+))
As to the kind of experiment: Lipid overlay far western, site-directed mutant. It counts as binding. To be noted: compared to the ARV1-N98 protein. The method in brief:
(§1)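 Steps: block overlays 1 h in Tris pH 7.5 saline with 0.5% Tween 20 and 3% BSA; wash; add 0.5 μg/ml protein with 0.1% Triton X-100 for 1 h at RT; wash; anti-tag antibody 1 h; HRP substrate imaging.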

The next assay concerns the target T2, 6XHIS-ARV1-N98 E70A (Homo sapiens, UniProt Q9H2C2, E70A).
T2 construct: Expressing amino-terminal 98 amino acids of ARV1; made in house; host or cells: E. coli BL21 (pET-28a(+))
As to the kind of experiment: Lipid overlay far western, site-directed mutant. It counts as binding. To be noted: compared to the ARV1-N98 protein. The method in brief:
as §1

A further assay has as its target T3, 6XHIS-ARV1-N98 N94Q (Homo sapiens, UniProt Q9H2C2, N94Q).
T3 construct: Expressing amino-terminal 98 amino acids of ARV1; made in house; host or cells: E. coli BL21 (pET-28a(+))
T3 sequence (Q9H2C2 1-98 N94Q): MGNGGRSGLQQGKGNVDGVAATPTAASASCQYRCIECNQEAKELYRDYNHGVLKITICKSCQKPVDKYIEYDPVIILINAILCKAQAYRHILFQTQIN
As to the kind of experiment: Lipid overlay far western, site-directed mutant. It counts as binding. To be noted: compared to the ARV1-N98 protein. The gist of the method:
as §1

Another assay deals with T4, 6XHIS-ARV1-N98 C58/C61A (Homo sapiens, UniProt Q9H2C2, C58A/C61A).
T4 construct: Expressing amino-terminal 98 amino acids of ARV1; made in house; host or cells: E. coli BL21 (pET-28a(+))
T4 sequence (Q9H2C2 1-98 C58A/C61A): T3 sequence (Q9H2C2 1-98 N94Q) with C58A, C61A, Q94N
As to the kind of experiment: Lipid overlay far western, site-directed mutant. It counts as binding. To be noted: compared to the ARV1-N98 protein. The method in brief:
as §1

The target in a further assay is T5, 6XHIS-ARV1-N98 K54/K59A (Homo sapiens, UniProt Q9H2C2, K54A/K59A).
T5 construct: Expressing amino-terminal 98 amino acids of ARV1; made in house; host or cells: E. coli BL21 (pET-28a(+))
T5 sequence (Q9H2C2 1-98 K54A/K59A): T3 sequence (Q9H2C2 1-98 N94Q) with K54A, K59A, Q94N
The assay can be described thus: Lipid overlay far western, site-directed mutant. The class given is binding. To be noted: compared to the ARV1-N98 protein. The method in brief: as §1

For another assay, the target named is T6, GST-ARV1-N98 K54/K59A (Homo sapiens, UniProt Q9H2C2, K54A/K59A).
T6 construct: Expresses amino-terminal 98 amino acids of ARV1; made in house; host or cells: E. coli BL21 (pGEX-4T1)
The assay can be described thus: Liposome binding assay, site-directed mutant. To be noted: PC:PL, sulfatide liposomes.

The target of the next assay is T7, GST-ARV1-N70 (Homo sapiens, UniProt Q9H2C2).
T7 construct: Expresses amino-terminal 70 amino acids of ARV1; made in house; host or cells: E. coli BL21 (pGEX-4T1)
T7 sequence (Q9H2C2 1-70): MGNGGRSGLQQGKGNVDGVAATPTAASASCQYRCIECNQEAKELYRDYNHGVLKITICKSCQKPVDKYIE
The assay can be described thus: Lipid overlay far western, truncation. It counts as binding. To be noted: compared to ARV1-N98. The method in brief:
as §1

A further assay deals with T8, GST-ARV1-N98 N94Q (Homo sapiens, UniProt Q9H2C2, N94Q).
T8 construct: Expresses amino-terminal 98 amino acids of ARV1; made in house; host or cells: E. coli BL21 (pGEX-4T1)
The assay can be described thus: Liposome binding assay, site-directed mutant. To be noted: PI(4)P liposomes.

A further assay has as its target T9, GST-ARV1-N98 E70A (Homo sapiens, UniProt Q9H2C2, E70A).
T9 construct: Expresses amino-terminal 98 amino acids of ARV1; made in house; host or cells: E. coli BL21 (pGEX-4T1)
The assay can be described thus: Liposome binding assay, site-directed mutant. To be noted: PE liposomes.

In the next assay the target is T10, GST-ARV1-N98 K84A (Homo sapiens, UniProt Q9H2C2, K84A).
T10 construct: Expresses amino-terminal 98 amino acids of ARV1; made in house; host or cells: E. coli BL21 (pGEX-4T1)
The assay can be described thus: Liposome binding assay, site-directed mutant. To be noted: PE liposomes.

T2 sequence (Q9H2C2 1-98 E70A): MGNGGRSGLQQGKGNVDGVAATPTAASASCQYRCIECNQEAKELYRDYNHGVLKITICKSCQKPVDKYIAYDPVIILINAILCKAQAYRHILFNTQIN
T1 sequence (Q9H2C2 1-98 D72A): as the sequence (Q9H2C2 1-98 E70A) above, with A70E, D72A counted along it
T9 sequence (Q9H2C2 1-98 E70A): as the sequence (Q9H2C2 1-98 E70A) above
T6 sequence (Q9H2C2 1-98 K54A/K59A): as the sequence (Q9H2C2 1-98 E70A) above, with K54A, K59A, A70E counted along it
T10 sequence (Q9H2C2 1-98 K84A): as the sequence (Q9H2C2 1-98 E70A) above, with A70E, K84A counted along it

For the compound `CCCCC/C=C\C/C=C\CCCCCCCC(=O)OC[C@H](COP(=O)(O)OCC(O)COP(=O)(O)OC[C@@H](COC(=O)CCCCCCC/C=C\C/C=C\CCCCC)OC(=O)CCCCCCC/C=C\C/C=C\CCCCC)OC(=O)CCCCCCC/C=C\C/C=C\CCCCC` (stereo partly shown) [CL, cardiolipin], the “change of lipid-protein interaction” value on 6XHIS-ARV1-N98 D72A is on record as “weakened”; at 6XHIS-ARV1-N98 E70A, “weakened”; on 6XHIS-ARV1-N98 N94Q, “more strongly”.
For the compound `CCCCCCCC/C=C\CCCCCCCC(=O)OC[C@H](COP(=O)(O)OCC(O)CO)OC(=O)CCCCCCC/C=C\CCCCCCCC` (stereo partly shown) [PG, phosphatidylglycerol], the “change of lipid-protein interaction” value is “weakened or eliminated” at 6XHIS-ARV1-N98 C58/C61A; “weakened” at 6XHIS-ARV1-N98 D72A; “weakened” on 6XHIS-ARV1-N98 E70A; “abolished” on 6XHIS-ARV1-N98 K54/K59A; “more strongly” on 6XHIS-ARV1-N98 N94Q. For the same compound, the liposome binding result at GST-ARV1-N98 K54/K59A was “unable to bind”.
Consider `CCCCCCCCCCCCCCCCCC(=O)OC[C@H](COP(=O)(O)OC[C@H](N)C(=O)O)OC(=O)CCCCCCCCCCCCCCCCC` [PS, phosphatidylserine], for which the figures for the “change of lipid-protein interaction” value at GST-ARV1-N70 and at 6XHIS-ARV1-N98 C58/C61A were “reduced interactions” and “enhanced”, respectively.
With `CCCCCC(=O)O[C@H](COC(=O)CCCCCNC(=O)CCCC[C@@H]1SC[C@@H]2NC(=O)N[C@@H]21)COP(=O)(O)O[C@H]1[C@H](O)[C@@H](O)[C@H](OP(=O)(O)O)[C@@H](O)[C@H]1O` [reference compound], the entries for the “change of lipid-protein interaction” value at GST-ARV1-N70 and at 6XHIS-ARV1-N98 K54/K59A were “enhanced” and “increasing the interaction”, respectively. In addition, the liposome binding entry at GST-ARV1-N98 N94Q was “lost the ability to bind”.
In the case of phosphatidylethanolamine [PE], the liposome binding entry on GST-ARV1-N98 E70A and on GST-ARV1-N98 K84A was “showed binding” in each case.

For the origin of these results see publication PMC11952846, “The sterol-regulating human ARV1 binds cholesterol and phospholipids through its conserved ARV1 homology domain” (The Journal of Biological Chemistry, 2025).
